In PMC11007962, “First-in-human study of GFH018, a small molecule inhibitor of transforming growth factor-β receptor I inhibitor, in patients with advanced solid tumors” (BMC Cancer, 2024):
Marks after values point to notes of the source that are not given here.

Legend:
[1] = Plasma pharmacokinetics (LC-MS/MS, noncompartmental analysis); type: in vivo, human
Protocol: For patients enrolled in the escalation part of the study, PK blood samples were collected at C1D1 predose; 0.5 h, 1 h, 2 h, 4 h, 8 h, and 12 h postdose; d 2 (24 h), d 3 (48 h), d 4 (72 h), and d 10 predose; d 17 (for 14 d-on/14 d-off regimen) or d 24 (for 7 d-on/7 d-off regimen) predose; and 0.5 h, 1 h, 2 h, 4 h, 8 h, and 12 h postdose. For patients enrolled in the expansion part, PK samples were collected predose on the last administration day and 0.5 h, 1 h, 2 h, 4 h, 8 h, and 12 h postdose on the last administration day. GFH018 levels in plasma samples were analyzed using a validated liquid chromatography-tandem mass spectrometry method. GFH018 PK parameters were determined using noncompartmental analysis methods and calculated using Phoenix WinNonlin Version 8.3.1 (Certara, Princeton, NJ, USA). GFH018 plasma concentrations and PK parameters were summarized descriptively according to the dose level.

pSMAD3 = system: pSMAD3; set-up: method as in preclinical studies (reference not given); details: mouse H22 models, ref preclinical studies (reference not given), cited from earlier work
[2] = set-up: method as in PMID 25488804, PMID 26309397; details: consecutive regimens; cited from earlier work
[3] = system: recurrent/metastatic nasopharyngeal carcinoma (R/M NPC); set-up: method as in doi:10.1200/JCO.2023.41.16_suppl.6026; details: ongoing phase Ib/II study; cited from earlier work
[4] = multiple dose, 5 mg BID 14d-on/14d-off (N=3)
[5] = multiple dose, 10 mg BID 14d-on/14d-off (N=3)
[6] = multiple dose, 20 mg BID 14d-on/14d-off (N=3)
[7] = multiple dose, 30 mg BID 14d-on/14d-off (N=7)
[8] = multiple dose, 40 mg BID 14d-on/14d-off (N=3)
[9] = multiple dose, 50 mg BID 14d-on/14d-off (N=2)
[10] = multiple dose, 65 mg BID 14d-on/14d-off (N=6)
[11] = multiple dose, 85 mg BID 7d-on/7d-off (N=5)
[12] = multiple dose, 85 mg BID 14d-on/14d-off (N=7), escalation and expansion parts combined
[13] = single dose, 5 mg BID 14d-on/14d-off (N = 4)
[14] = single dose, 10 mg BID 14d-on/14d-off (N = 3)
[15] = single dose, 20 mg BID 14d-on/14d-off (N = 4)
[16] = single dose, 30 mg BID 14d-on/14d-off (N = 7)
[17] = single dose, 40 mg BID 14d-on/14d-off (N = 4)
[18] = single dose, 50 mg BID 14d-on/14d-off (N = 4)
[19] = single dose, 65 mg BID 14d-on/14d-off (N = 6)
[20] = single dose, 85 mg BID 7d-on/7d-off (N = 6)
[21] = single dose, 85 mg BID 14d-on/14d-off (N = 9), dose escalation part only

Cc1cccc(-c2nn3c(c2-c2ccc4ncnn4c2/C=C/C(N)=O)CCC3)n1 [GFH018]
PK linearity ([1]; 5 – 85 mg): linear and dose-independent
mean half-life ([1]; 5 – 85 mg (single and multiple dose)): 2.25 to 8.60 h
geometric CV% of exposure (Cmax and AUC) at the steady state ([1]; all cohorts): 7.3–168.9%
AUCtau, geometric mean (geometric CV) [1, 4]: 597 (61.1) h*ng/mL
Cmax, geometric mean (geometric CV) [1, 4]: 165 (15.7) ng/mL
Cmin, geometric mean (geometric CV) [1, 4]: 7.48 (208.2) ng/mL
Racc (accumulation ratio calculated by AUC), geometric mean (geometric CV) [1, 4]: 1.02 (37.9)
Tmax, median (minimum, maximum) [1, 4]: 0.88 (0.42, 0.95) h
t1/2, geometric mean (geometric CV) [1, 4]: 2.67 (31.0) h
AUCtau, geometric mean (geometric CV) [1, 5]: 997 (168.9) h*ng/mL
Cmax, geometric mean (geometric CV) [1, 5]: 291 (124.9) ng/mL
Cmin, geometric mean (geometric CV) [1, 5]: 15.8 (212.1) ng/mL
Racc (accumulation ratio calculated by AUC), geometric mean (geometric CV) [1, 5]: 1.22 (40.3)
Tmax, median (minimum, maximum) [1, 5]: 0.92 (0.90, 1.27) h
t1/2, geometric mean (geometric CV) [1, 5]: 2.25 (26.5) h
AUCtau, geometric mean (geometric CV) [1, 6]: 2056 (76.9) h*ng/mL
Cmax, geometric mean (geometric CV) [1, 6]: 676 (48.0) ng/mL
Cmin, geometric mean (geometric CV) [1, 6]: 25.5 (137.3) ng/mL
Racc (accumulation ratio calculated by AUC), geometric mean (geometric CV) [1, 6]: 1.15 (17.4)
Tmax, median (minimum, maximum) [1, 6]: 0.93 (0.57, 1.08) h
t1/2, geometric mean (geometric CV) [1, 6]: 2.55 (24.6) h
AUCtau, geometric mean (geometric CV) [1, 7]: 5605 (76.6) h*ng/mL
Cmax, geometric mean (geometric CV) [1, 7]: 1167 (87.9) ng/mL
Cmin, geometric mean (geometric CV) [1, 7]: 144 (107.2) ng/mL
Racc (accumulation ratio calculated by AUC), geometric mean (geometric CV) [1, 7]: 1.32 (39.4)
Tmax, median (minimum, maximum) [1, 7]: 1.10 (0.47, 2.58) h
t1/2, geometric mean (geometric CV) [1, 7]: 4.09 (36.8) h
AUCtau, geometric mean (geometric CV) [1, 8]: 5144 (30.3) h*ng/mL
Cmax, geometric mean (geometric CV) [1, 8]: 1599 (33.7) ng/mL
Cmin, geometric mean (geometric CV) [1, 8]: 21.0 (2741.3) ng/mL
Racc (accumulation ratio calculated by AUC), geometric mean (geometric CV) [1, 8]: 1.18 (6.7)
Tmax, median (minimum, maximum) [1, 8]: 0.88 (0.38, 1.00) h
t1/2, geometric mean (geometric CV) [1, 8]: 2.45 (42.8) h
AUCtau, geometric mean (geometric CV) [1, 9]: 4432 (43.6) h*ng/mL
Cmax, geometric mean (geometric CV) [1, 9]: 1253 (7.3) ng/mL
Cmin, geometric mean (geometric CV) [1, 9]: 91.4 (72.9) ng/mL
Racc (accumulation ratio calculated by AUC), geometric mean (geometric CV) [1, 9]: 1.26 (9.2)
Tmax, median (minimum, maximum) [1, 9]: 0.75 (0.50, 1.00) h
t1/2, geometric mean (geometric CV) [1, 9]: 3.53 (3.1) h
AUCtau, geometric mean (geometric CV) [1, 10]: 8189 (29.3) h*ng/mL
Cmax, geometric mean (geometric CV) [1, 10]: 2303 (34.0) ng/mL
Cmin, geometric mean (geometric CV) [1, 10]: 129 (51.8) ng/mL
Racc (accumulation ratio calculated by AUC), geometric mean (geometric CV) [1, 10]: 1.17 (25.3)
Tmax, median (minimum, maximum) [1, 10]: 1.88 (0.50, 2.00) h
t1/2, geometric mean (geometric CV) [1, 10]: 2.59 (9.6) h
AUCtau, geometric mean (geometric CV) [1, 11]: 7732 (46.8) h*ng/mL
Cmax, geometric mean (geometric CV) [1, 11]: 2193 (29.1) ng/mL
Cmin, geometric mean (geometric CV) [1, 11]: 115 (92.5) ng/mL
Racc (accumulation ratio calculated by AUC), geometric mean (geometric CV) [1, 11]: 1.04 (32.5)
Tmax, median (minimum, maximum) [1, 11]: 0.50 (0.50, 1.00) h
t1/2, geometric mean (geometric CV) [1, 11]: 2.92 (18.3) h
AUCtau, geometric mean (geometric CV) [1, 12]: 11353 (27.9) h*ng/mL
Cmax, geometric mean (geometric CV) [1, 12]: 3034 (33.6) ng/mL
Cmin, geometric mean (geometric CV) [1, 12]: 164 (54.3) ng/mL
Tmax, median (minimum, maximum) [1, 12]: 0.50 (0.50, 2.05) h
Racc (accumulation ratio calculated by AUC), geometric mean (geometric CV) ([1]; multiple dose, 85 mg BID 14d-on/14d-off (N=7), n=5 for Racc): 1.18 (24.1)^e
t1/2, geometric mean (geometric CV) ([1]; multiple dose, 85 mg BID 14d-on/14d-off (N=7), n=5 for t1/2): 3.01 (20.0)^d h
geometric mean accumulation ratio (Racc, by AUC) across all dose groups ([1]; multiple doses): 1.02–1.32
increase of exposure with dose ([1]; multiple doses / overall, 5–85 mg): increased in an approximately proportional manner
accumulation ([1]; multiple doses, any cohort): No obvious accumulation
absorption after oral administration ([1]; oral): rapidly absorbed
increase of plasma exposure (AUC0-t and Cmax) with dose ([1]; single dose, 5–85 mg): increased in an approximately proportional manner
AUC0-12, geometric mean (geometric CV) [1, 13]: 690 (51.3) h*ng/mL
AUC0-inf, geometric mean (geometric CV) [1, 13]: 769 (58.3) h*ng/mL
AUC0-t, geometric mean (geometric CV) [1, 13]: 754 (58.4) h*ng/mL
Cmax, geometric mean (geometric CV) [1, 13]: 215 (50.2) ng/mL
Tmax, median (minimum, maximum) [1, 13]: 0.65 (0.40, 0.97) h
t1/2, geometric mean (geometric CV) [1, 13]: 4.42 (82.9) h
AUC0-12, geometric mean (geometric CV) [1, 14]: 819 (99.0) h*ng/mL
AUC0-inf, geometric mean (geometric CV) [1, 14]: 864 (110.5) h*ng/mL
AUC0-t, geometric mean (geometric CV) [1, 14]: 852 (111.3) h*ng/mL
Cmax, geometric mean (geometric CV) [1, 14]: 250 (72.2) ng/mL
Tmax, median (minimum, maximum) [1, 14]: 0.88 (0.42, 0.93) h
t1/2, geometric mean (geometric CV) [1, 14]: 3.11 (106.3) h
AUC0-12, geometric mean (geometric CV) [1, 15]: 2551 (107.3) h*ng/mL
AUC0-inf, geometric mean (geometric CV) [1, 15]: 2825 (123.9) h*ng/mL
AUC0-t, geometric mean (geometric CV) [1, 15]: 2802 (123.7) h*ng/mL
Cmax, geometric mean (geometric CV) [1, 15]: 743 (65.1) ng/mL
Tmax, median (minimum, maximum) [1, 15]: 0.49 (0.43, 1.03) h
t1/2, geometric mean (geometric CV) [1, 15]: 4.90 (115.1) h
AUC0-12, geometric mean (geometric CV) [1, 16]: 4250 (50.4) h*ng/mL
AUC0-inf, geometric mean (geometric CV) [1, 16]: 4926 (47.8) h*ng/mL
AUC0-t, geometric mean (geometric CV) [1, 16]: 4895 (48.2) h*ng/mL
Cmax, geometric mean (geometric CV) [1, 16]: 972 (82.7) ng/mL
Tmax, median (minimum, maximum) [1, 16]: 0.95 (0.37, 3.80) h
t1/2, geometric mean (geometric CV) [1, 16]: 5.74 (37.6) h
AUC0-12, geometric mean (geometric CV) [1, 17]: 4147 (30.3) h*ng/mL
AUC0-inf, geometric mean (geometric CV) [1, 17]: 4603 (35.2) h*ng/mL
AUC0-t, geometric mean (geometric CV) [1, 17]: 4561 (35.3) h*ng/mL
Cmax, geometric mean (geometric CV) [1, 17]: 1180 (24.7) ng/mL
Tmax, median (minimum, maximum) [1, 17]: 0.69 (0.37, 0.90) h
t1/2, geometric mean (geometric CV) ([1]; single dose, 40 mg BID 14d-on/14d-off (N = 4), n=3 for t1/2): 8.60 (103.8)^b h
AUC0-12, geometric mean (geometric CV) [1, 18]: 5100 (57.9) h*ng/mL
AUC0-inf, geometric mean (geometric CV) [1, 18]: 5906 (49.3) h*ng/mL
AUC0-t, geometric mean (geometric CV) [1, 18]: 5858 (50.2) h*ng/mL
Cmax, geometric mean (geometric CV) [1, 18]: 1209 (85.4) ng/mL
Tmax, median (minimum, maximum) [1, 18]: 0.96 (0.47, 1.92) h
t1/2, geometric mean (geometric CV) [1, 18]: 5.93 (51.2) h
AUC0-12, geometric mean (geometric CV) [1, 19]: 7028 (10.9) h*ng/mL
AUC0-inf, geometric mean (geometric CV) [1, 19]: 7870 (17.9) h*ng/mL
AUC0-t, geometric mean (geometric CV) [1, 19]: 7831 (17.8) h*ng/mL
Cmax, geometric mean (geometric CV) [1, 19]: 2172 (16.3) ng/mL
Tmax, median (minimum, maximum) [1, 19]: 0.68 (0.48, 2.00) h
t1/2, geometric mean (geometric CV) [1, 19]: 5.51 (34.3) h
AUC0-12, geometric mean (geometric CV) [1, 20]: 7455 (27.3) h*ng/mL
AUC0-inf, geometric mean (geometric CV) [1, 20]: 8284 (28.1) h*ng/mL
AUC0-t, geometric mean (geometric CV) [1, 20]: 8240 (27.9) h*ng/mL
Cmax, geometric mean (geometric CV) [1, 20]: 2555 (29.9) ng/mL
Tmax, median (minimum, maximum) [1, 20]: 0.50 (0.50, 1.10) h
t1/2, geometric mean (geometric CV) [1, 20]: 7.45 (61.8) h
AUC0-12, geometric mean (geometric CV) [1, 21]: 10074 (42.0) h*ng/mL
AUC0-inf, geometric mean (geometric CV) [1, 21]: 11164 (45.4) h*ng/mL
AUC0-t, geometric mean (geometric CV) [1, 21]: 11119 (45.5) h*ng/mL
Cmax, geometric mean (geometric CV) [1, 21]: 3225 (35.5) ng/mL
Tmax, median (minimum, maximum) [1, 21]: 0.58 (0.45, 1.12) h
t1/2, geometric mean (geometric CV) [1, 21]: 6.37 (41.6) h
effective concentration (efficacy with approximately 50% inhibition of pSMAD3) (pSMAD3; after the 1-h dose): 125 ng/ml
inhibition of pSMAD3 at which efficacy was observed (pSMAD3; at 125 ng/ml after the 1-h dose): approximately 50%
cardiac findings in toxicology studies [2]: cardiac lesions occur
efficacy in combination with toripalimab [3]: promising efficacy was shown
